# From patent publication US20080261973A1, “Sulphonamidoaniline Derivatives Being Janus Kinase Inhibitors” (Novartis AG, priority 2005, published 2008)
row,SMILES,melting point
1,"CS(=O)(=O)Nc1cccc(Nc2nc(OC3CCCC3)c3cc[nH]c3n2)c1 [Example 43, N-[3-(4-Cyclopentyloxy-7H-pyrrolo[2,3-d]pyrimidin-2-ylamino)-phenyl]-methanesulfonamide]",203 to 205 °C
2,"CS(=O)(=O)Nc1ccc(Nc2nc(NC3CCCC3)c3nc[nH]c3n2)cc1 [Example 44, N-[4-(6-Cyclopentylamino-9H-purin-2-ylamino)-phenyl]-methanesulfonamide]",261 to 265 °C
3,"CS(=O)(=O)Nc1cccc(Nc2nc(Oc3ccc(F)cc3)c3nc[nH]c3n2)c1 [Example 46, N-{3-[6-(4-Fluoro-phenoxy)-9H-purin-2-ylamino]-phenyl}-methanesulfonamide]",136 to 139 °C
4,"CC(=O)Nc1cccc(CNc2nc(Nc3cccc(NS(C)(=O)=O)c3)nc3[nH]cnc23)c1 [Example 64, N-(3-{[2-(3-Methanesulfonylamino-phenylamino)-9H-purin-6-ylamino]-methyl}-phenyl)-acetamide]",159 to 162 °C
5,"CS(=O)(=O)Nc1cccc(Nc2nc(NCc3cccc(N)c3)c3nc[nH]c3n2)c1 [Example 72, N-{3-[6-(3-Amino-benzylamino)-9H-purin-2-ylamino]-phenyl}-methanesulfonamide]",170 to 173 °C
6,"CS(=O)(=O)Nc1cccc(Nc2nc(NCc3cccc(O)c3)c3nc[nH]c3n2)c1 [Example 73, N-{3-[6-(3-Hydroxy-benzylamino)-9H-purin-2-ylamino]-phenyl}-methanesulfonamide]",221 to 225 °C
7,"CS(=O)(=O)Nc1cccc(Nc2nc(NCc3cccc(C#N)c3)c3nc[nH]c3n2)c1 [Example 78, N-{3-[6-(3-Cyano-benzylamino)-9H-purin-2-ylamino]-phenyl}-methanesulfonamide]",128 to 131 °C
8,"CC(C)NCCNc1nc(Nc2cccc(NS(C)(=O)=O)c2)nc2[nH]ccc12 [Example 82, N-{3-[4-(2-Isopropylamino-ethylamino)-7H-pyrrolo[2,3-d]pyrimidin-2-ylamino]-phenyl}-methanesulfonamide]",127 to 131 °C
9,"CC(C)[C@@H](CO)Nc1nc(Nc2cccc(NS(C)(=O)=O)c2)nc2[nH]ccc12 [Example 84, N-{3-[4-((S)-1-Hydroxymethyl-2-methyl-propylamino)-7H-pyrrolo[2,3-d]pyrimidin-2-ylamino]-phenyl}-methanesulfonamide]",106 to 109 °C
10,"CC(C)N(CCO)c1nc(Nc2cccc(NS(C)(=O)=O)c2)nc2[nH]ccc12 [Example 87, N-(3-{4-[(2-Hydroxy-ethyl)-isopropyl-amino]-7H-pyrrolo[2,3-d]pyrimidin-2-ylamino}-phenyl)-methanesulfonamide]",129 to 132 °C
11,"CC[C@H](Nc1nc(Nc2cccc(NS(C)(=O)=O)c2)nc2[nH]cnc12)c1ccccc1 [Example 92, N-{3-[6-((S)-1-Phenyl-propylamino)-9H-purin-2-ylamino]-phenyl}-methanesulfonamide]",138 to 141 °C
12,"CS(=O)(=O)Nc1cccc(Nc2nc(NCc3ccccc3CO)c3nc[nH]c3n2)c1 [Example 93, N-{3-[6-(2-Hydroxymethyl-benzylamino)-9H-purin-2-ylamino]-phenyl}-methanesulfonamide]",145 to 148 °C
13,"CS(=O)(=O)Nc1cccc(Nc2nc(NCc3ccccc3O)c3nc[nH]c3n2)c1 [Example 94, N-{3-[6-(2-Hydroxy-benzylamino)-9H-purin-2-ylamino]-phenyl}-methanesulfonamide]",168 to 171 °C

# The remaining lines, values ahead:
row,melting point,SMILES
1,150 to 153 °C,"C[C@H](Nc1nc(Nc2cccc(NS(C)(=O)=O)c2)nc2[nH]cnc12)C(C)(C)C [Example 38, N-{3-[6-((S)-1,2,2-Trimethyl-propylamino)-9H-purin-2-ylamino]-phenyl}-methanesulfonamide]"
2,169 to 171 °C,"C[C@@H](Nc1nc(Nc2cccc(NS(C)(=O)=O)c2)nc2[nH]cnc12)C(C)(C)C [Example 39, N-{3-[6-((R)-1,2,2-Trimethyl-propylamino)-9H-purin-2-ylamino]-phenyl}-methanesulfonamide]"
3,141 to 144 °C,"C[C@H](Nc1nc(Nc2cccc(NS(C)(=O)=O)c2)nc2[nH]cnc12)c1ccccc1 [Example 40, N-{3-[6-((S)-1-Phenyl-ethylamino)-9H-purin-2-ylamino]-phenyl}-methanesulfonamide]"
4,136 to 139 °C,"C[C@@H](Nc1nc(Nc2cccc(NS(C)(=O)=O)c2)nc2[nH]cnc12)c1ccccc1 [Example 41, N-{3-[6-((R)-1-Phenyl-ethylamino)-9H-purin-2-ylamino]-phenyl}-methanesulfonamide]"
5,216 to 220 °C,"CS(=O)(=O)Nc1cccc(Nc2nc(NCc3ncc[nH]3)c3nc[nH]c3n2)c1 [Example 45, N-(3-{6-[(1H-Imidazol-2-ylmethyl)-amino]-9H-purin-2-ylamino}-phenyl)-methanesulfonamide]"
6,125 to 128 °C,"C[C@@H](Nc1nc(Nc2cccc(NS(C)(=O)=O)c2)nc2[nH]ccc12)C(C)(C)C [Example 49, N-{3-[4-((R)-1,2,2-Trimethyl-propylamino)-7H-pyrrolo[2,3-d]pyrimidin-2-ylamino]-phenyl}-methanesulfonamide]"
7,270 to 273 °C,"CC(C)(C)CNc1nc(Nc2cccc(NS(C)(=O)=O)c2)nc2[nH]cnc12 [Example 50, N-{3-[6-(2,2-Dimethyl-propylamino)-9H-purin-2-ylamino]-phenyl}-methanesulfonamide]"
8,128 to 132 °C,"C[C@H](Nc1nc(Nc2cccc(NS(C)(=O)=O)c2)nc2[nH]ccc12)C(C)(C)C [Example 51, N-{3-[4-((S)-1,2,2-Trimethyl-propylamino)-7H-pyrrolo[2,3-d]pyrimidin-2-ylamino]-phenyl}-methanesulfonamide]"
9,143 to 146 °C,"CCC(C)(C)[C@@H](C)Nc1nc(Nc2cccc(NS(C)(=O)=O)c2)nc2[nH]cnc12 [Example 65, N-{3-[6-((R)-1,2,2-Trimethyl-butylamino)-9H-purin-2-ylamino]-phenyl}-methanesulfonamide]"
10,133 to 136 °C,"C=CS(=O)(=O)Nc1cccc(Nc2nc(N[C@H](C)C(C)(C)C)c3nc[nH]c3n2)c1 [Example 97, Ethenesulfonic acid {3-[6-((R)-1,2,2-trimethyl-propylamino)-9H-purin-2-ylamino]-phenyl}-amide]"
